Source: patent US20060100235A1, “Pharmaceutical use of substituted 1,2,4-triazoles” (Novo Nordisk A/S, priority 2003, published 2006)

Target: T1, h-11βHSD1 (Homo sapiens, UniProt P28845)
T1 construct: made in house
Assay: 11βHSD1 enzyme assay (scintillation proximity assay)
Format: biochemical
Conditions: extract of yeast transformed with h-11βHSD1; 120 nM 3H-cortisone, 4 mM β-NADPH; 60 min at 30° C.
Description: Pharmacological Methods 11βHSD1 enzyme assay Materials
^3H-cortisone and anti-rabbit Ig coated scintillation proximity assay (SPA) beads were purchased from Amersham Pharmacia Biotech, β-NADPH was from Sigma and rabbit anticortisol antibodies were from Fitzgerald. An extract of yeast transformed with h-11βHSD1 (Hult et al., FEBS Lett, 441, 25 (1998)) was used as the source of enzyme. The test compounds were dissolved in DMSO (10 mM). All dilutions were performed in a buffer containing 50 mM TRIS-HCl (Sigma Chemical Co), 4 mM EDTA (Sigma Chemical Co), 0.1% BSA (Sigma Chemical Co), 0.01% Tween-20 (Sigma Chemical Co) and 0.005% bacitracin (Novo Nordisk A/S), pH=7.4. Optiplate 96 wells plates were supplied by Packard. The amount of ^3H-cortisol bound to the SPA beads was measured on TopCount NXT, Packard.
h-11βHSD1, 120 nM ^3H-cortisone, 4 mM β-NADPH, antibody (1:200), serial dilutions of test compound and SPA particles (2 mg/well) were added to the wells. The reaction was initiated by mixing the different components and was allowed to proceed under shaking for 60 min at 30° C. […] Data was analysed using GraphPad Prism software.

T1 sequence (P28845 whole entry): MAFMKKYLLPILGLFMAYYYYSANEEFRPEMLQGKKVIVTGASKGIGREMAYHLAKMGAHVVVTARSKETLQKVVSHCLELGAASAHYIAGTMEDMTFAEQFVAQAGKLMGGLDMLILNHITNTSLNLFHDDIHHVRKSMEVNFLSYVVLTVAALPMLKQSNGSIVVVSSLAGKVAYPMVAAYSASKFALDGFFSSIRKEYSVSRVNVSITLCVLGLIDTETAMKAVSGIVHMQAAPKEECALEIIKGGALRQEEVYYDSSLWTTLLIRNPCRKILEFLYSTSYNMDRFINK

Row | SMILES | IC50 [nM]
1 | CCn1c(SCC(=O)N2CCCc3ccccc32)nnc1-c1ccccc1Br [Comp A, 2-[5-(2-Bromo-phenyl)-4-ethyl-4H-[1,2,4]triazol-3-ylsulfanyl]-1-(3,4-dihydro-2H-quinolin-1-yl)-ethanone] | 160
2 | Cn1c(SCC(=O)c2ccccc2)nnc1C1CCCCC1 [Comp B, 2-(5-Cyclohexyl-4-methyl-4H-[1,2,4]triazol-3-ylsulfanyl)-1-phenyl-ethanone] | 190
